Results from PMC4541407 (2015).

Experiments:
[1] = system: ds DNA (dual labelled) (DNA, duplex) CCAGTTCGTAGTAACCC/GGGTTACTACGAACTGG; test: FRET melting; details: 50 mM K+, 50 mM potassium cacodylate pH 7.4
[2] = system: c-MYC (dual labelled) (DNA, G4) TGAGGGTGGGTAGGGTGGGTAA; test: FRET melting
[3] = system: c-KIT1 (dual labelled) (DNA, G4) GGGAGGGCGCTGGGAGGGAGGG; test: FRET melting
[4] = system: c-KIT2 (dual labelled) (DNA, G4) GGGCGGGCGCGAGGGAGGGG; test: FRET melting
[5] = system: ds DNA (DNA, duplex) CCAGTTCGTAGTAACCC/GGGTTACTACGAACTGG; test: fluorescence titration; details: 100 mM K+; 100 mM Tris-HCl pH 7.4, 25 °C; 1.0 µM ligand, DNA 0-6 equiv
[6] = system: c-MYC (DNA, G4) TGAGGGTGGGTAGGGTGGGTAA; test: fluorescence titration; details: 100 mM Tris-HCl pH 7.4, 25 °C; for KD: 100 mM K+, 1.0 µM ligand, DNA 0-6 equiv
[7] = system: c-MYC (NMR oligonucleotide) (DNA, G4) TGAGGGTGGGTAGGGTGGGTAA; test: 1H NMR imino titration
[8] = system: c-KIT1 (DNA, G4) GGGAGGGCGCTGGGAGGGAGGG; test: fluorescence titration; details: 100 mM K+; 100 mM Tris-HCl pH 7.4, 25 °C; 1.0 µM ligand, DNA 0-6 equiv
[9] = system: c-KIT2 (DNA, G4) GGGCGGGCGCGAGGGAGGGG; test: fluorescence titration; details: 100 mM K+; 100 mM Tris-HCl pH 7.4, 25 °C; 1.0 µM ligand, DNA 0-6 equiv
[10] = 50 mM K+, 50 mM potassium cacodylate pH 7.4, 1.0 µM ligand

Row | Compound | binding ([1]; 1.0 µM ligand) | binding [2, 10] | binding [3, 10] | binding [4, 10] | Kd [5] [µM] | KD [6] [µM] | binding ([6]; no added K+, 5.5-fold enhancement, 25 nm blue shift, Kd n.d.) | binding ([7]; 100 mM K+, 25 mM Tris-HCl pH 7.4, 298 K, 100 µM DNA, binds minor conformation) | binding ([7]; no added K+, 25 mM Tris-HCl pH 7.4, 298 K, 100 µM DNA, binds minor conformation) | binding ([1]; up to 1.0 µM ligand) | ΔTm ([2]; 50 mM K+, 50 mM potassium cacodylate pH 7.4, 100 nM ligand, maximum measurable shift) [K] | binding ([2]; no added K+, MQ water pH 7.4, saturation at 250 nM ligand) | ΔTm ([3]; 50 mM K+, 50 mM potassium cacodylate pH 7.4, 750 nM ligand, maximum measurable shift) [K] | binding ([3]; no added K+, MQ water pH 7.4, saturation at 1 µM ligand) | KD [8] [µM] | ΔTm ([4]; 50 mM K+, 50 mM potassium cacodylate pH 7.4, 500 nM ligand, maximum measurable shift) [K] | binding ([4]; no added K+, MQ water pH 7.4, saturation at 750 nM ligand) | KD [9] [µM] | binding ([7]; 100 mM K+, 25 mM Tris-HCl pH 7.4, stabilizes minor conformation(s))
1 | C#Cc1ccc2c(c1)c1cc(C#C)ccc1n2CCCN(C)C | no | no | no | no |  |  |  |  |  |  |  |  |  |  |  |  |  |  | 
2 | CN(C)CCCNC(=O)c1ccc(-n2cc(-c3ccc4c(c3)c3cc(-c5cn(-c6ccc(C(=O)NCCCN(C)C)cc6)nn5)ccc3n4CCCN(C)C)nn2)cc1 |  |  |  |  | > 10.0 | 0.3 ± 0.015 | yes | yes | yes | no | 22.7 ± 1.4 | yes | 39.4 ± 2.5 | yes | 1.38 ± 0.07 | 23.2 ± 1.6 | yes | 1.37 ± 0.06 | 
3 | CN(C)CCCn1c2ccc(-c3cn(-c4ccc(N)cc4)nn3)cc2c2cc(-c3cn(-c4ccc(N)cc4)nn3)ccc21 |  | yes |  |  |  | > 20 |  |  |  |  |  |  |  |  |  |  |  |  | yes
